This passage reports TGI and GI50 results from PubChem BioAssay (NCI).

Several values for one entry are separate records, joined by “and”; a condition that tells them apart may be missing. Identical values can stand only once.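 48-hour exposure; five concentrations; linearly interpolated endpoints. Abbreviation: GI50, concentration required for 50% inhibition of growth. TGI: total growth inhibition.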

Common to all, as to test: inhibition of tumour cell growth, NCI panel, 48 h
For assay [1], the system named is SW-620 colon.
The subject of assay [2] is BT-549 breast.
The test system of assay [3] is SK-MEL-2 melanoma.
The test system of assay [4] is OVCAR-4 ovarian.
Assay [5] has as its system 786-0 renal.
Assay [6] deals with SF-268 CNS.
Assay [7] has as its system OVCAR-5 ovarian.
The subject of assay [8] is UACC-62 melanoma.
Assay [9] has as its system OVCAR-3 ovarian.
Assay [10] relates to T-47D breast.

Regarding `Nn1c(CCCCCCCCc2nnc(COc3c(O)ccc4ccccc34)n2N)nnc1COc1c(O)ccc2ccccc12`, the TGI in assay [1], in assay [2], in assay [3], in [4], in assay [5] and in assay [6] was above 100 µM in each case. For the same compound, the TGI in [7] and in [8] was above 100 µM each time.

`COC(=O)c1ccccc1/C=C1/Cc2ccccc2C1=O`: the TGI in assay [1] was 85.5 µM; in assay [4], above 100 µM; in assay [6], above 100 µM; in assay [7], above 100 µM; in assay [9] it was above 100 µM; in [8], above 100 µM. Further, the TGI in [10] is above 100 µM.

Consider `CCC[C@H]1C(=O)N=C(N)N1C(=O)OCc1ccccc1`, for which the TGI in [1], in assay [2], in assay [3], in assay [4], in [5] and in assay [6] was above 100 µM each time. The TGI in [7], in [9] and in [8] was above 100 µM each time.

For `C=C1C(O)C2(O)OCC34C(CC5C(C)=CC(=O)C(O)C5(C)C23)OC(=O)C(OC(=O)C/C=C(\C)CCCCC)C14` (stereo not drawn), the GI50 in [1] was below 0.001 µM; in assay [3] it was 0.00113 µM; in [4] it was below 0.001 µM; in assay [6] it was below 0.001 µM; in assay [7], 0.0022 µM; in assay [9] it was below 0.001 µM. Further, in assay [8], the GI50 is below 0.001 µM. For the same compound, the TGI in assay [1] is 0.0158 µM and 0.119 µM and 0.026 µM; in assay [3], 0.00985 µM and 0.042 µM; in assay [5] it was 0.00681 µM and 0.0244 µM; in assay [9], below 0.001 µM; in assay [10], below 0.001 µM.

As for `NC(=O)C(=O)N/N=C1/c2ccccc2CC1C1(O)C(=O)Nc2c(Cl)cc(Cl)cc21` (stereo not drawn), the TGI in [1], in [3], in assay [4], in assay [6], in assay [7] and in assay [9] was above 100 µM throughout. This compound also registered a TGI in [8] above 100 µM.

Regarding `COc1ccc(-c2cc(=O)c3cc4c(cc3[nH]2)OCO4)c(OC)c1OC`, the TGI in [1], in assay [3], in assay [4], in assay [5], in assay [6] and in [9] was above 100 µM in each case. In addition, the TGI in [8] was above 100 µM.

As for `CSCCC(NCc1c(O)ccc2c(-c3ccccc3)cc(=O)oc12)C(=O)O` (stereo not drawn), the TGI in assay [1], in [3], in [4], in assay [5], in assay [6] and in assay [7] was above 100 µM in each case. The TGI in assay [9], in assay [8] and in assay [10] was above 100 µM throughout.

In the case of `Oc1ccc(-c2nnc3sc(-c4ccc(F)cc4)nn23)cc1`, the GI50 in assay [1] is above 100 µM; in assay [3], above 100 µM; in assay [4], above 100 µM; in assay [6] it was 23 µM; in assay [7] it was above 100 µM; in assay [9], 18.6 µM. Also, the results for the GI50 in [8] and in assay [10] were 31.8 µM and 21 µM, respectively. Also, the TGI is above 100 µM in [1]; above 100 µM in [3]; above 100 µM in [4]; 62.6 µM in assay [6]; above 100 µM in [7]; above 100 µM in assay [9]. For the same compound, the TGI in assay [8] and in [10] was above 100 µM in each case.

For the compound `COc1cc(/C=C/C(=O)O)ccc1C(=O)O/C=C/c1ccccc1`, the TGI in assay [1], in [3], in assay [4], in assay [6], in [7] and in [9] was above 100 µM in each case. In assay [8], this compound yielded a TGI above 100 µM.

As for `CCN(CC)CCNc1ccc2nnn3c4ccc(OC)cc4c(=O)c1c23`, the TGI came out at 17.1 µM in assay [1]; 27.4 µM in assay [3]; 19.9 µM in assay [4]; 17.9 µM in [5]; 20.6 µM in assay [6]; 23.7 µM in assay [7]. Besides, the TGI in [9] was 31.4 µM; in [8], 25.7 µM.

With `CCC1=CCC23C(=O)C=CC(=O)C2(C1)C(=O)c1cccc(OC)c1C3=O` (stereo not drawn), the TGI is 34 µM in assay [1]; above 100 µM in [3]; 26.1 µM in assay [4]; 24.8 µM in assay [5]; 36.2 µM in assay [6]; 31.8 µM in assay [7]. For the same compound, the results for the TGI in assay [9], in [8] and in assay [10] were 27.2 µM, 37.2 µM and 22.6 µM, respectively.

`COc1cc(/C=C2\C(=O)N(C(=O)Cc3ccccc3)N=C2C)ccc1O`: the TGI in assay [1], in [3], in [4], in assay [5], in assay [6] and in [7] was above 100 µM throughout. Also, the TGI in assay [9] is above 100 µM.

Turning to `O=C(CP(=O)(O)O)c1cccs1`, the TGI in assay [1], in assay [3], in [5], in assay [6], in [7] and in assay [9] was above 100 µM in each case. For the same compound, the TGI in assay [8] is above 100 µM.

Consider `C=C(Cl)/C(=C\Cl)CCC(Br)C(C)C` (stereo not drawn), for which the TGI was 37.9 µM in assay [1]; above 100 µM in assay [2]; above 100 µM in assay [3]; 95.5 µM in assay [4]; above 100 µM in [5]; above 100 µM in assay [6]. Further, the TGI in assay [7], in [9] and in assay [8] was above 100 µM throughout.

On to `CC(=O)NS(=O)(=O)c1ccc(NC(=O)c2c3ccccc3nc3ccccc23)cc1`, for which the TGI in [1], in [2], in [3], in [4], in [5] and in assay [6] was above 100 µM each time. In addition, the TGI in assay [7], in [9] and in assay [8] was above 100 µM throughout.

As for `OC[C@@H](O)[C@H]1NC[C@@H](O)[C@H]1O`, the TGI in [1], in [2], in assay [4], in assay [5], in assay [6] and in assay [7] was above 100 µM in each case. In addition, the TGI in assay [9] and in assay [8] was above 100 µM each time.

For `CCC(C(=O)O)c1ccc(OCc2ccccc2)cc1` (stereo not drawn), the TGI in [1], in assay [3], in assay [4], in assay [6], in assay [7] and in assay [9] was above 100 µM in each case. Also, the TGI in assay [8] was above 100 µM.

As for `C[n+]1c(-c2ccccc2)cc2/c(=C\c3ccc([N+](=O)[O-])cc3)c3ccccc3n21`, the TGI was 29 µM in assay [1]; 1.67 µM in assay [2]; 10.9 µM in [3]; above 100 µM in [4]; 18.9 µM in [5]; 29.1 µM in [6]. For the same compound, the values for the TGI in assay [7], in assay [9] and in [8] were 54.2 µM, 15.5 µM and above 73.6 µM, respectively.

On to `COc1ccc(Nc2nc3ccc(C(F)(F)F)cc3nc2C(=O)O)cc1OC`, for which the TGI was above 100 µM in assay [1]; 71.5 µM in assay [2]; 35.5 µM in assay [3]; above 100 µM in [4]; above 100 µM in assay [5]; above 100 µM in assay [6]. Further, the TGI in assay [7] is above 100 µM; in assay [9], 40.8 µM; in assay [8], above 100 µM.

In the case of `CC(C)(C)N=c1n(C(C)(C)C)oc(=O)n1C(C)(C)C`, the TGI in [1], in assay [2], in assay [3], in assay [4], in [5] and in assay [7] was above 100 µM throughout. Moreover, the TGI in [9] and in assay [8] was above 100 µM in each case.

Consider `COCOc1ccc(OC)cc1`, for which the TGI in assay [1], in assay [3], in assay [4], in assay [6], in assay [7] and in [9] was above 100 µM in each case. The TGI in assay [8] is above 100 µM.

Regarding `CSC1CC2C(CC1(C)O)C2(C)C` (stereo not drawn), the TGI in assay [1], in assay [3], in assay [4], in assay [5], in assay [6] and in [7] was above 100 µM throughout. For the same compound, the TGI in assay [9] and in [8] was above 100 µM throughout. In addition, the GI50 in assay [9] is 38.5 µM and > 100 µM.

In the case of `CCC12C[N+]3([O-])CCc4c([nH]c5ccccc45)C(C(=O)OC)(c4cc5c(cc4OC)N(C)C4C(O)(C(=O)OC)C(OC(C)=O)C6(CC)C=CCN7CCC54C76)CC(C3)C1O2` (stereo not drawn), the TGI is 20.4 µM in [1]; 0.649 µM in [3]; 45.9 µM in [4]; 7.95 µM in assay [5]; 28.8 µM in [6]; 33.3 µM in assay [7]. Also, the TGI in assay [9] was determined as 1.3 µM; in assay [8], 16.2 µM.

With `CN(C)C(CN)CC1=C(CC(CN)N(C)C)CCC1` (stereo not drawn), the TGI in assay [1], in assay [3], in assay [4], in [6], in assay [7] and in [9] was above 100 µM each time. The TGI in [8] was above 100 µM.

In the case of `CC(C)(C)C1=Cc2cc3cc(C(C)(C)C)[nH]c(=O)c3cc2S(=O)(=O)N1`, the TGI in assay [1] was 44.8 µM; in assay [3] it was 38.2 µM; in assay [4] it was above 100 µM; in assay [5] it was above 100 µM; in assay [6], 95.1 µM; in assay [7] it was 92.5 µM. Further, the TGI in [9] stood at 59.3 µM; in [8] it was 42 µM.

`C/C(=N/NC(N)=S)c1ccc2ccccc2c1`: the TGI is above 100 µM in assay [1]; 51.1 µM in assay [3]; above 100 µM in [4]; above 100 µM in assay [6]; 86 µM in assay [7]; above 100 µM in assay [9]. Further, the TGI in assay [8] is 28.6 µM.

For `C/C(=C\c1ccccc1)C(=O)CCN1CCOCC1`, the TGI is 30.9 µM in assay [1]; above 59.9 µM in [3]; 32.9 µM in assay [4]; above 85.6 µM in [6]; 33.4 µM in [7]; 34.2 µM in assay [9]. Moreover, in assay [8], the TGI is 32.6 µM.

On to `COc1cc2c(cc1OC)C1c3ccccc3CCN1CC2` (stereo not drawn), for which the TGI in assay [1], in [3], in assay [4], in assay [5], in assay [6] and in assay [7] was above 100 µM each time. The TGI in assay [9], in assay [8] and in assay [10] was above 100 µM each time.

Take `CC(C)=C[C@@H]1C[C@H](n2cc(C)c(=O)[nH]c2=O)ON1CCO`: the TGI in [1], in [3], in assay [4], in [5], in assay [6] and in assay [7] was above 100 µM each time. Moreover, the TGI in assay [9], in assay [8] and in assay [10] was above 100 µM in each case.

Consider `CCOC(=O)C1=C(C(C)=O)CSC(c2ccccc2)=N1`, for which the TGI in [1], in [3], in [4], in assay [6], in [7] and in assay [9] was above 100 µM throughout. Moreover, the TGI in assay [8] was above 100 µM.

As to `CN(C)c1ccc(-c2c(C#N)c(S)n(NS(=O)(=O)c3ccccc3)c(=O)c2C#N)cc1`, the TGI in assay [1] is above 100 µM; in [2], 61.7 µM; in assay [3] it was above 100 µM; in assay [4] it was 74.2 µM; in [5] it was 40.6 µM; in assay [7], above 100 µM. Also, the TGI in assay [9] and in [8] was above 100 µM each time.
